Measured values from patent publication US20110251233A1, “FORMULATION FOR THE BUCCAL TRANSMUCOSAL ADMINISTRATION OF SETRONS” (priority 2008, published 2011).

Assay: dissolution of ondansetron in hydroalcoholic solution
Type: physicochemical
Details: approximately 50° ethanol
Description: By way of example, the coefficient of dissolution of ondansetron in ethanol allows complete dissolution of said active ingredient at the rate of 2 milligrams (mg) of ondansetron per 0.75 milliliters (mL) of approximately 50° ethanol. This coefficient may be modulated as a function of the degree of alcohol and the water/ethanol ratio used.

coefficient of dissolution (complete dissolution): 2 mg per 0.75 mL
SMILES: Cc1nccn1CC1CCc2c(c3ccccc3n2C)C1=O (stereo not shown) [ondansetron]
